Experimental data: patent US20070025902A1, “RECOVERY OF FLUORINATED CARBOXYLIC ACID FROM ADSORBENT PARTICLES” (priority 2005, published 2007)
Marks after values point to notes of the source that are not given here.

Assay: Determination of bio-accumulation: urinary clearance pharmacokinetic study in rats
Settings: oral gavage; for Compound-related Effects: clinical signs of toxicity and gross necropsy 96 hours post-dose
[1] = parent compound recovered in urine after 96 h, 73 micro Moles per kg body weight
[2] = renal elimination half-life of parent compound from urine, 73 micro Moles per kg body weight, exponential least squares curve fitting
[3] = 73 micro Moles per kg body weight
[4] = no parent compound in urine, based on elimination of the major metabolite C3F7—O—CHFCOO−, 73 micro Moles per kg

N.O=C(O)C(F)(F)OC(F)(F)C(F)(F)OC(F)(F)C(F)(F)F [Compound 10, C2F5—O—CF2—CF2—O—CF2—COONH4]
% Recovery (96 h) [1]: 99% | T½ [2]: 10 h

N.O=C(O)C(F)(F)C(F)(F)OC(F)(F)C(F)(F)C(F)(F)C(F)(F)F [Compound 9, C4F9—O—CF2—CF2—COONH4]
Compound-related Effects [3]: Hepatomegaly | % Recovery (96 h) [1]: 42% | T½ [2]: 31 h

N.O=C(O)COC(F)(F)C(F)OC(F)(F)C(F)(F)C(F)(F)F (centres unmarked) [Compound 16, C3F7—O—CFH—CF2—O—CH2—COONH4]
% Recovery (96 h) [4]: 65* % | T½ (h) [4]: 13* h

N.O=C(O)C(F)(F)OC(F)(F)OC(F)(F)OC(F)(F)F [Compound 3, CF3—OCF2—OCF2—OCF2—COONH4]
% Recovery (96 h) [1]: 100% | T½ [2]: 12 h

N.O=C(O)C(F)(F)OC(F)(F)C(F)(F)C(F)(F)OC(F)(F)F [Compound 1, CF3—O—(CF2)3—O—CF2—COONH4]
% Recovery (96 h) [1]: 73%

N.O=C(O)C(F)(F)C(F)(F)C(F)(F)C(F)(F)C(F)(F)C(F)(F)C(F)(F)F [Compound C-1, C7F15COONH4, reference compound]
Compound-related Effects [3]: Hepatomegaly | % Recovery (96 h) [1]: 6% | T½ (h) [2]: ˜550 h

N.O=C(O)C(F)(F)C(F)OC(F)(F)C(F)(F)C(F)(F)OC(F)(F)F (centres unmarked) [Compound 11, CF3—O—CF2—CF2—CF2—O—CHF—CF2—COONH4]
% Recovery (96 h) [1]: 84% | T½ [2]: 12 h

N.O=C(O)C(F)(F)C(F)(F)OC(F)(F)F [Compound 6, CF3—O—CF2—CF2—COONH4]
% Recovery (96 h) [1]: 100% | T½ [2]: 11 h

N.O=C(O)C(F)(F)OC(F)(F)C(F)(OC(F)(F)C(F)(F)C(F)(F)F)C(F)(F)F (centres unmarked) [Compound C-3, CF3CF2CF2OCF(CF3)CF2OCF2COONH4, reference compound]
Compound-related Effects [3]: Hepatomegaly | % Recovery (96 h) [1]: 5% | T½ [2]: 95 h

N.O=C(O)C(F)(F)OC(F)(F)C(F)(F)C(F)(F)F [Compound 5, C3F7—O—CF2—COONH4]
% Recovery (96 h) [1]: 97% | T½ [2]: 11 h

N.O=C(O)C(F)OC(F)(F)C(F)(F)C(F)(F)OC(F)(F)F (centres unmarked) [Compound 12, CF3—O—CF2—CF2—CF2—O—CHF—COONH4]
% Recovery (96 h) [1]: 95% | T½ [2]: 11 h

N.O=C(O)C(F)(F)C(F)(F)C(F)(F)C(F)(F)C(F)(F)OC(F)C(F)(F)F (centres unmarked) [Compound 14, CF3—CFH—O—(CF2)5—COONH4]
Compound-related Effects [3]: Hepatomegaly | % Recovery (96 h) [1]: 32% | T½ [2]: 24 h

N.O=C(O)C(F)(F)C(F)(F)OC(F)(F)C(F)(F)C(F)(F)F [Compound 8, C3F7—O—CF2—CF2—COONH4]
% Recovery (96 h) [1]: 82% | T½ [2]: 12 h

N.O=C(O)C(F)(F)C(F)(F)C(F)(F)OC(F)C(F)(F)F (centres unmarked) [Compound 15, CF3—CFH—O—(CF2)3—COONH4]
% Recovery (96 h) [1]: 95% | T½ [2]: 8 h

N.O=C(O)C(F)(F)C(F)OC(F)(F)C(F)(F)C(F)(F)F (centres unmarked) [Compound 13, C3F7—O—CFH—CF2COONH4]
% Recovery (96 h) [1]: 94% | T½ [2]: 11 h

N.O=C(O)C(F)(F)C(F)(F)OC(F)(F)C(F)(F)F [Compound 7, C2F5—O—CF2—CF2—COONH4]
% Recovery (96 h) [1]: 100% | T½ [2]: 10 h

N.O=C(O)C(F)(F)OC(F)(F)OC(F)(F)F [Compound 2, CF3—OCF2—O—CF2—COONH4]
% Recovery (96 h) [1]: 96% | T½ [2]: 12 h

N.O=C(O)C(F)(F)OC(F)(F)C(F)(F)C(F)(F)OC(F)(F)F [Compound 4, CF3—(OCF2)3—OCF2—COONH4]
% Recovery (96 h) [1]: 50%
